# Like-named read-outs stand apart in the source and are kept apart here.
# Legend:
# VN1203-H5N1 = assay: microbe, parasite or virus in culture; format: cell-based, A/Vietnam/1203/2004 (H5N1); conditions: read-out: IC50 of polymerase inhibitor
# TX001-H5N1 wild-type = format: cell-based, A/dairy cattle/Texas/24–008749-001/2024 (H5N1)
# wild-type TX001-H5N1 = conditions: mouse
# [1] = target: VN1203-H5N1 neuraminidase (NA) (Influenza A virus, UniProt Q6DPL2); assay: biochemical; design: species or system A/Vietnam/1203/2004 (H5N1)
# [2] = target: TX001-H5N1 wild-type neuraminidase (NA) (Influenza A virus, UniProt D0G890); format: biochemical, A/dairy cattle/Texas/24–008749-001/2024 (H5N1)
# [3] = read-out: IC50 of neuraminidase inhibitors
compound,measurement,setting,value
O=C1c2c(O)c(=O)ccn2N([C@@H]2c3ccccc3SCc3c2ccc(F)c3F)[C@@H]2COCCN12 [Baloxavir acid],IC50,VN1203-H5N1,1250 ± 750 pM
same,IC50,TX001-H5N1 wild-type; read-out: IC50 of polymerase inhibitor,610 ± 120 pM
NC(=O)c1nc(F)c[nH]c1=O [Favipiravir],"Effectiveness in vivo (body weight, survival, virus titres)",wild-type TX001-H5N1; po,highly effective
same,IC50,"VN1203-H5N1; Influenza A virus, H5N1, MDCK, 48 h",1.65 ± 0.15 µg/mL
same,Effectiveness of polymerase inhibitor in vitro,TX001-H5N1 wild-type,highly effective
CO[C@@H]([C@@H]1OC(C(=O)O)=C[C@H](NC(=N)N)[C@H]1NC(C)=O)[C@H](O)CO [Laninamivir],IC50,[1],410 ± 30 pM
CCC(CC)[C@H](NC(C)=O)[C@@H]1[C@H](O)[C@@H](C(=O)O)C[C@H]1N=C(N)N [Peramivir],IC50,[1]; [3],240 ± 30 pM
same,IC50,[2]; [3],195 ± 15 pM
CC(=O)N[C@H]1[C@H]([C@H](O)[C@H](O)CO)OC(C(=O)O)=C[C@@H]1N=C(N)N [Zanamivir],Effect on body weight loss and death,wild-type TX001-H5N1; in vivo,delayed body weight loss and death
same,"Effect on virus titres in lung, nasal turbinate and brain",wild-type TX001-H5N1; in vivo,"significantly reduced virus titres in lung, nasal turbinate and brain"
same,Protection against lethality,wild-type TX001-H5N1; in vivo,did not protect against lethality
same,Antiviral sensitivity to NA inhibitor in vitro (interpretation),[2],sensitive
COC(=O)OCOc1c2n(ccc1=O)N([C@@H]1c3ccccc3SCc3c1ccc(F)c3F)[C@@H]1COCCN1C2=O [baloxavir marboxil],"Effectiveness in vivo (body weight, survival, virus titres)",wild-type TX001-H5N1; po,highly effective
same,Effectiveness of polymerase inhibitor in vitro,TX001-H5N1 wild-type,highly effective
CCOC(=O)C1=C[C@@H](OC(CC)CC)[C@H](NC(C)=O)[C@@H](N)C1 [oseltamivir phosphate],"Protection against body weight loss, viral replication in tissues, or survival","wild-type TX001-H5N1; in vivo, po",Minimal protection

# From PMC12629513 (Nature, 2024)
